# Results as given in patent US20120010241A1, “HSP90 INHIBITING INDAZOLE DERIVATIVES, COMPOSITIONS CONTAINING SAME AND USE THEREOF” (SANOFI, priority 2009, published 2012).
# How the values were obtained:
# [1] = system: Her2 expression in SKBr3 cells; assay: phenotypic SKBr3/HER2 cell test (Her2 expression at the cell surface, flow cytometry); type: cell-based; conditions: Homo sapiens, SK-BR-3, incubation for 24 h, anti-Her2 antibody coupled to PE, FACS
# Protocol: The cellular activity of the compounds can in particular be evaluated by means of the phenotypic “SKBr3/HER2” cell test described below:
# The SKBr3 […] adenocarcinoma cells, overexpressing the Her2 tyrosine kinase receptor, originate from the ATCC (HTB-30) and are cultured in McCoy's 5A medium supplemented with 10% FBS and 1% L-glutamine.
# The cells are seeded in 12-well plates at a proportion of 125 000 cells per well in 1 ml of complete medium. The following day, the products are added at varying concentrations. After incubation for 24 h, the cells are trypsinized, washed with PBS and incubated with 100 ng of anti-Her2 antibody coupled to PE (phycoerythrin) (BD 340552) for 30 minutes at 4° C. in the dark. The fluorescence due to the expression of the Her2 receptor at the surface of the cells is then read using a FACS Calibur flow cytometer (Becton-Dickinson). The percentage inhibition of Her2 expression as a function of the concentrations of product tested is fitted by the nonlinear regression technique (XLfit, equation 205) in order to measure the IC50 for each product.
# Hsp82 = Hsp82 (Saccharomyces cerevisiae, UniProt P02829); assay: Hsp82/ATPase test (PK/LDH coupled spectrophotometric method; malachite green method also described); type: biochemical; conditions: 1 μM Hsp82, 250 μM ATP, 37° C., absorbance at 340 nm
# Protocol: The biochemical activity of the compounds can in particular be evaluated by means of the “Hsp82/ATPase” test described below:
# The inorganic phosphate released during the hydrolysis of ATP by the ATPase activity of Hsp82 is quantified by the malachite green method. In the presence of this reagent, formation of the inorganic phosphate-molybdate-malachite green complex, which absorbs at a wavelength of 620 nm, occurs.
# The products to be evaluated are incubated in a reaction volume of 30 μl, in the presence of 1 μM Hsp82 and of 250 μM of substrate (ATP) in a buffer composed of 50 mM Hepes-NaOH (pH 7.5), 1 mM DTT, 5 mM MgCl2 and 50 mM KCl at 37° C. for 60 min. In parallel, an inorganic phosphate range of between 1 and 40 μM is made up in the same buffer. […] The inorganic phosphate concentration of each sample is then calculated from the standard curve. The ATPase activity of Hsp82 is expressed as concentration of inorganic phosphate produced in 60 minutes. The effect of the various products tested is expressed as percentage inhibition of the ATPase activity.
# The formation of ADP due to the ATPase activity of Hsp82 was used to develop another method for evaluating the enzyme activity of this enzyme by application of an enzymatic coupling system involving pyruvate kinase (PK) and lactate dehydrogenase (LDH). In this kinetic-type spectrophotometric method, PK catalyses the formation of ATP and of pyruvate from phosphoenol pyruvate (PEP) and the ADP produced by Hsp82. The pyruvate formed, which is a substrate for LDH, is subsequently converted to lactate in the presence of NADH. In this case, the decrease in the NADH concentration, measured through the decrease in absorbance at the wavelength of 340 nm, is proportional to the concentration of ADP produced by Hsp82.
# The products tested are incubated in a reaction volume of 100 μl of buffer composed of 100 mM Hepes-NaOH (pH 7.5), 5 mM MgCl2, 1 mM DTT, 150 mM KCl, 0.3 mM NADH, 2.5 mM PEP and 250 μM ATP. This mixture is preincubated at 37° C. for 30 minutes before the addition of 3.77 units of LDH and 3.77 units of PK. The reaction is initiated by addition of the product to be evaluated, in varying concentrations, and of Hsp82, at the concentration of 1 μM. The enzymatic activity of Hsp82 is then measured continuously, in a microplate reader, at 37° C., at the wavelength of 340 nm. The initial rate of the reaction is obtained by measuring the slope of the tangent to the origin of the curve recorded. The enzymatic activity is expressed in μM of ADP formed per minute. The effect of the various products tested is expressed as 50% inhibitory concentration (1050) with respect to the ATPase activity, according to the codification below: […]
# Sequence of Hsp82 (P02829 whole entry): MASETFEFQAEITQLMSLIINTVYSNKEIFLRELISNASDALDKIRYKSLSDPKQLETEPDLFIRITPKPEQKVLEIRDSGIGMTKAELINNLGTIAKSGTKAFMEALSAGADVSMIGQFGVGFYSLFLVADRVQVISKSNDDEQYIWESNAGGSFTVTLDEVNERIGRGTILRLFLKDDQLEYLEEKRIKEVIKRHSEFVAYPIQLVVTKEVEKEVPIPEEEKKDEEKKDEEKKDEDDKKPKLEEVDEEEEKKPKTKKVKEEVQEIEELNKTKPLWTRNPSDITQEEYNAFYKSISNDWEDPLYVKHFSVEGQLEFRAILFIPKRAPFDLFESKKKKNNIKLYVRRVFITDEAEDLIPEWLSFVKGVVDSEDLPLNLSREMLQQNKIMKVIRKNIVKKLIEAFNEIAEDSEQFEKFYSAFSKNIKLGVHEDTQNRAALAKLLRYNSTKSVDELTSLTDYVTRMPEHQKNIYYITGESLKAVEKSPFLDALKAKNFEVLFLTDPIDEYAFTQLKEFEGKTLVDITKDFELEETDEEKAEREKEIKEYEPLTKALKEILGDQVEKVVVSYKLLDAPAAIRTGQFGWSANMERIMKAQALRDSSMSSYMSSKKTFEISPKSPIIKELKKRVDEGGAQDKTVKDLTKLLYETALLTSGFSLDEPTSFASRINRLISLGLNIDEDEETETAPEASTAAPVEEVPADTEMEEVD
IC50 [1] [µM],IC50 (Hsp82) [µM],Structure (SMILES)
< 1,< 1,"Cc1nn(-c2ccc(C(N)=O)c(N[C@H]3CC[C@H](O)CC3)c2)c2cccc(-c3nc4ccc(F)cc4[nH]3)c12 [Example 12, 4-[4-(6-fluoro-1H-benzimidazol-2-yl)-3-methylindazol-1-yl]-2-(trans-4-hydroxycyclohexylamino)benzamide]"
< 1,,Cc1nn(-c2cnc(C(N)=O)c(NC3CC(C)(C)N(C)C(C)(C)C3)c2)c2cccc(-c3cnc4ccccc4c3)c12 [Example 17]
< 1,,"Cc1nn(-c2ccc(C(N)=O)c(NCC(C)(C)O)c2)c2cccc(-c3nc4ccc(F)cc4[nH]3)c12 [Example 13, 4-[4-(6-fluoro-1H-benzimidazol-2-yl)-3-methylindazol-1-yl]-2-(2-hydroxy-2-methylpropylamino)benzamide]"
< 1,,"NC(=O)c1ncc(-n2nc(Cl)c3c(-c4cnc5ccccc5c4)cccc32)cc1N[C@H]1CC[C@H](O)CC1 [Example 26, 5-(3-chloro-4-quinolin-3-ylindazol-1-yl)-3-(trans-4-hydroxycyclohexylamino)pyridine-2-carboxamide]"
1 to 10,< 1,"Cc1nn(-c2cnc(C(N)=O)c(NCCc3ccccn3)c2)c2cccc(-c3cnc4ccccc4c3)c12 [Example 18, 5-[3-methyl-4-quinolin-3-ylindazol-1-yl]-3-[2-pyridin-2-ylethylamino]pyridine-2-carboxamide]"
< 1,,"Cc1nn(-c2ccc(C(N)=O)c(NC[C@H]3C[C@@H]4CC[C@H]3O4)c2)c2cccc(-c3cnc4ccccc4c3)c12 (single isomer, unassigned) [Example 19, 4-(3-methyl-4-quinolin-3-ylindazol-1-yl)-2-{[exo-1-(7-oxabicyclo[2.2.1]hept-2-yl)methyl]amino}benzamide]"
< 1,< 1,"Cc1nn(-c2cnc(C(N)=O)c(NC3CCOCC3)c2)c2cccc(-c3cnc4ccccc4c3)c12 [Example 10, 5-(3-methyl-4-quinolin-3-ylindazol-1-yl)-3-(tetrahydro-pyran-4-ylamino)pyridine-2-carboxamide]"
< 1,< 1,"Cc1nn(-c2ccc(C(N)=O)c(NC3CCOCC3)c2)c2cccc(-c3cnc4ccccc4c3)c12 [Example 7, 4-(3-methyl-4-quinolin-3-ylindazol-1-yl)-2-(tetrahydropyran-4-ylamino)benzamide]"
< 1,< 1,"Cc1nn(-c2ccc(C(N)=O)c(N[C@H]3CC[C@H](OC(=O)CN)CC3)c2)c2cccc(-c3cnc4ccccc4c3)c12 [Example 11, aminoacetic acid trans-4-[2-carbamoyl-5-(3-methyl-4-quinolin-3-ylindazol-1-yl)phenylamino]cyclohexyl ester]"
1 to 10,,"NC(=O)c1ccc(-n2nc(C(F)(F)F)c3c(-c4nc5ccc(F)cc5[nH]4)cccc32)cc1N[C@H]1CC[C@H](O)CC1 [Example 22, 4-[4-(6-fluoro-1H-benzimidazol-2-yl)-3-trifluoromethylindazol-1-yl]-2-(trans-4-hydroxycyclohexylamino)benzamide]"
< 1,< 1,"Cc1nn(-c2ccc(C(N)=O)c(NCCCO)c2)c2cccc(-c3cnc4ccccc4c3)c12 [Example 3, 2-(3-hydroxypropylamino)-4-(3-methyl-4-quinolin-3-ylindazol-1-yl)benzamide]"
< 1,< 1,"Cc1nn(-c2ccc(C(N)=O)c(NC3CC(C)(C)NC(C)(C)C3)c2)c2cccc(-c3cnc4ccccc4c3)c12 [Example 6, 4-(3-methyl-4-quinolin-3-ylindazol-1-yl)-2-(2,2,6,6-tetramethylpiperidin-4-ylamino)benzamide]"
< 1,,"NC(=O)c1ccc(-n2nc(C(F)(F)F)c3c(-c4cnc5ccccc5c4)cccc32)cc1N[C@H]1CC[C@H](O)CC1 [Example 21, 2-(trans-4-hydroxycyclohexylamino)-4-(4-quinolin-3-trifluoromethylindazol-1-yl)benzamide]"
< 1,,"NC(=O)c1ccc(-n2ncc3c(-c4cnc5ccccc5c4)cccc32)cc1N[C@H]1CC[C@H](O)CC1 [Example 24, 2-(trans-4-hydroxycyclohexylamino)-4-(4-quinolin-3-ylindazol-1-yl)benzamide]"
< 1,,"NC(=O)c1ncc(-n2nc(C(F)(F)F)c3c(-c4cnc5ccccc5c4)cccc32)cc1N[C@H]1CC[C@H](O)CC1 [Example 23, 3-(trans-4-hydroxycyclohexylamino)-5-(4-quinolin-3-yl-3-trifluoromethylindazol-1-yl)pyridine-2-carboxamide]"
< 1,,"Cc1nn(-c2ccc(C(N)=O)c(NC[C@@H]3C[C@@H]4CC[C@H]3O4)c2)c2cccc(-c3cnc4ccccc4c3)c12 (single isomer, unassigned) [Example 20, 4-(3-methyl-4-quinolin-3-ylindazol-1-yl)-2-{[endo-1-(7-oxabicyclo[2.2.1]hept-2-yl)methyl]amino}benzamide]"
< 1,,"Cc1nn(-c2ccc(C(N)=O)c(NCCF)c2)c2cccc(-c3cnc4ccccc4c3)c12 [Example 8, 2-(2-fluoroethylamino)-4-(3-methyl-4-quinolin-3-ylindazol-1-yl)benzamide]"
< 1,,"Cc1nn(-c2cnc(C(N)=O)c(NCC(C)(C)O)c2)c2cccc(-c3cnc4ccccc4c3)c12 [Example 9, 3-(2-hydroxy-2-methylpropylamino)-5-(3-methyl-4-quinolin-3-ylindazol-1-yl)pyridine-2-carboxamide]"
10 to 100,1 to 10,"Cc1nn(-c2ccc(C(N)=O)cc2)c2cccc(-c3cnc4ccccc4c3)c12 [Example 2, 4-(3-methyl-4-quinolin-3-ylindazol-1-yl)benzamide]"
< 1,,"Cc1nn(-c2cnc(C(N)=O)c(N[C@H]3CC[C@H](O)CC3)c2)c2cccc(-c3cnc4ccccc4c3)c12 [Example 16, 3-(trans-4-hydroxycyclohexylamino)-5-(3-methyl-4-quinolin-3-ylindazol-1-yl)pyridine-2-carboxamide]"
< 1,,"CC(C)(O)CNc1cc(-n2nc(Br)c3c(-c4cnc5ccccc5c4)cccc32)cnc1C(N)=O [Example 27, 5-(3-bromo-4-quinolin-3-ylindazol-1-yl)-3-(2-hydroxy-2-methylpropylamino)pyridine-2-carboxamide]"
< 1,1 to 10,"Cc1nn(-c2ccc(C(N)=O)c(NC3CC(C)(C)N(C)C(C)(C)C3)c2)c2cccc(-c3cnc4ccccc4c3)c12 [Example 15, 4-(3-methyl-4-quinolin-3-ylindazol-1-yl)-2-(1,2,2,6,6-pentamethylpiperidin-4-ylamino)benzamide]"
< 1,,"Cc1nn(-c2ccc(C(N)=O)c(NCCC3(O)CCN(C)CC3)c2)c2cccc(-c3cnc4ccccc4c3)c12 [Example 4, 2-[2-(4-hydroxy-1-methylpiperidin-4-yl)ethylamino]-4-(3-methyl-4-quinolin-3-ylindazol-1-yl)benzamide]"
10 to 100,,"NC(=O)c1ccc(-n2ncc3c(-c4cnc5ccccc5c4)cccc32)cc1 [Example 25, 4-(4-quinolin-3-ylindazol-1-yl)benzamide]"

Structure (SMILES),IC50 [1] [µM],IC50 (Hsp82) [µM]
"Cc1nn(-c2ccc(C(N)=O)c(N[C@H]3CC[C@H](O)CC3)c2)c2cccc(-c3cnc4ccccc4c3)c12 [Example 1, 2-(trans-4-hydroxycyclohexylamino)-4-(3-methyl-4-quinolin-3-ylindazol-1-yl)benzamide]",< 1,< 1
